In patent publication EP1039908B1, “MOLECULAR DISPERSION COMPOSITION WITH ENHANCED BIOAVAILABILITY” (SCHERING CORPORATION, priority 1997, dated 1999):

Assay: Bioavailability assay: oral single dose to monkeys, plasma analysed by HPLC-UV, AUC ratio versus amorphous suspension control
Type: in vivo, male cynomolgus monkeys
Settings: for bioavailability: qualitative statement, solid dosage form development with conventional excipients
Description: The formulation to be tested was administered orally to male cynomolgus monkeys in a single dose (PO, single). The number of monkeys for each test is indicated by the letter "N" followed by an equal sign and a number. Thus, "(N=6)" means the formulation was administered to six monkeys. The total amount of the compound of Formula I administered was 100 or 200 mg given as one capsule or tablet containing 100 or 200 mg each. The administered dose (tablet, capsule or control suspension) was slowly washed down with 10 mL of water. Blood samples were taken at 15, 30 minutes, 1 hour, 2 hours, 4 hours. 6 hours, 8 hours, 12 hours, 24 hours, and 48 hours in heparinized syringes. Plasma for analysis was obtained by centrifugation at 4°C. Plasma samples (one per time point) were split and stored at -20°C until assayed as described below.
The monkeys to be tested were fed two biscuits in the morning on the day of drug administration.
Monkeys that were fasted were not given any food overnight before drug administration and were fed normally after the 4-hour time point after drug administration.
Samples of monkey plasma were collected at selected time intervals. The plasma was analyzed by a high pressure liquid chromatograph (HPLC) procedure with ultraviolet detection. AUC (area under the plasma concentration-time curve, […]) values were calculated using standard procedures to determine the relative bioavailability of the compound in the tested formulations. The larger the AUC value, the greater the bioavailability.
A suspension of the compound of Formula I was used as a control. The control was made by suspending sufficient compound of Formula I in methyl cellulose solution to provide a dose of 30 mg/kg of body weight of monkey. The 0.4 % methyl cellulose solution was made by adding 4 grams of methyl cellulose to one liter of distilled water and heating at about 80°C with stirring for about 1 1/2 hours.
The results of the bioavailability assay are given in terms of percent-relative bioavailability (AUC ratio) compared to amorphous suspension of Compound I in 0.4 methyl cellulose solution.

[1] = suspension, PO single dose, fed monkeys
[2] = suspension, PO single dose, feeding state not printed in the sentence (fasted monkeys implied by b156)

NC(=O)N1CCC(CC(=O)N2CCC(C3c4ncc(Br)cc4CCc4cc(Cl)cc(Br)c43)CC2)CC1 (single isomer, unassigned; (+)) [Compound I, (+)-4-[4-(8-chloro-3,10-dibromo-6,11-dihydro-5H-benzo [5,6cyclohepta[1,2-b]pyridin-11-yl)-1-piperidinyl]-2-oxoethyl]-1-piperidinecarboxamide]
bioavailability (listed as compound of Formula I): extremely poor

NC(=O)N1CCC(CC(=O)N2CCC(C3c4ncc(Br)cc4CCc4cc(Cl)cc(Br)c43)CC2)CC1 (single isomer, unassigned; (+)) [crystalline compound I, (+)-4-[4-(8-chloro-3,10-dibromo-6,11-dihydro-5H-benzo [5,6cyclohepta[1,2-b]pyridin-11-yl)-1-piperidinyl]-2-oxoethyl]-1-piperidinecarboxamide]
bioavailability: very poor | relative bioavailability, % of the AUC of suspensions containing the amorphous form of compound I [1]: 3.6% | relative bioavailability, % of the C max of suspensions containing the amorphous form of compound I [1]: 5.2% | relative bioavailability, % of the AUC of the suspensions containing the amorphous form of compound I [2]: 1.3% | relative bioavailability, % of the Cmax of the suspensions containing the amorphous form of compound I [2]: 2.7%
